In PubChem BioAssay (NCI):
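Abbreviation: GI50, concentration required for 50% inhibition of growth. TGI marks complete inhibition of growth.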

What was measured:
Experiment in all cases: growth of human tumour cells (NCI), 384-well format
786-0 renal = system: 786-0 renal
A498 renal = system: A498 renal
A549 NSCLC = system: A549 NSCLC
BT-549 breast = system: BT-549 breast
CAKI-1 renal = system: CAKI-1 renal
CCRF-CEM leukemia = system: CCRF-CEM leukemia
COLO 205 colon = system: COLO 205 colon
DU-145 prostate = system: DU-145 prostate
EKVX NSCLC = system: EKVX NSCLC
HCC-2998 colon = system: HCC-2998 colon
HL-60(TB) leukemia = system: HL-60(TB) leukemia
HOP-62 NSCLC = system: HOP-62 NSCLC
HOP-92 NSCLC = system: HOP-92 NSCLC
HS 578T breast = system: HS 578T breast
HT29 colon = system: HT29 colon
IGROV1 ovarian = system: IGROV1 ovarian
KM12 colon = system: KM12 colon
LOX IMVI melanoma = system: LOX IMVI melanoma
M14 melanoma = system: M14 melanoma
MALME-3M melanoma = system: MALME-3M melanoma
MCF7 breast = system: MCF7 breast
MDA-MB-231 breast = system: MDA-MB-231 breast
MDA-MB-435 melanoma = system: MDA-MB-435 melanoma
MDA-MB-468 breast = system: MDA-MB-468 breast
MOLT-4 leukemia = system: MOLT-4 leukemia
NCI-H226 lung = system: NCI-H226 lung
NCI-H23 lung = system: NCI-H23 lung
NCI-H460 NSCLC = system: NCI-H460 NSCLC
NCI-H522 lung = system: NCI-H522 lung
NCI/ADR-RES ovarian = system: NCI/ADR-RES ovarian
OVCAR-4 ovarian = system: OVCAR-4 ovarian
OVCAR-5 ovarian = system: OVCAR-5 ovarian
OVCAR-8 ovarian = system: OVCAR-8 ovarian
PC-3 prostate = system: PC-3 prostate
RPMI-8226 leukemia = system: RPMI-8226 leukemia
RXF 393 renal = system: RXF 393 renal
SF-268 CNS = system: SF-268 CNS
SF-295 CNS = system: SF-295 CNS
SF-539 CNS = system: SF-539 CNS
SK-MEL-28 melanoma = system: SK-MEL-28 melanoma
SK-MEL-5 melanoma = system: SK-MEL-5 melanoma
SK-OV-3 ovarian = system: SK-OV-3 ovarian
SN12C renal = system: SN12C renal
SNB-19 CNS = system: SNB-19 CNS
SNB-75 CNS = system: SNB-75 CNS
SR leukemia = system: SR leukemia
SW-620 colon = system: SW-620 colon
T-47D breast = system: T-47D breast
TK-10 renal = system: TK-10 renal
UACC-257 melanoma = system: UACC-257 melanoma
UO-31 renal = system: UO-31 renal

Work on `N[C@@H]1CCCN(c2c(Br)cnc3[nH]cc(NC(=O)C4CC4)c23)C1` yielded a GI50 (786-0 renal) of 26.8 nM, a TGI (786-0 renal) of 78.9 nM and a GI50 (A498 renal) of 12 nM. For the same molecule, the TGI (A498 renal) was 31.2 nM, the GI50 (A549 NSCLC) was 303 nM and the TGI (A549 NSCLC) was > 100000 nM. It also gave a GI50 (BT-549 breast) of 18.6 nM, a TGI (BT-549 breast) of 42.7 nM and a GI50 (CAKI-1 renal) of 361 nM. The TGI (CAKI-1 renal) was 14200 nM, the GI50 (CCRF-CEM leukemia) was 19 nM and the TGI (CCRF-CEM leukemia) was 37.5 nM. It also gave a GI50 (COLO 205 colon) of 269 nM, a TGI (COLO 205 colon) of 2690 nM and a GI50 (DU-145 prostate) of 172 nM. The TGI (DU-145 prostate) was > 100000 nM, the GI50 (EKVX NSCLC) was 184 nM and the TGI (EKVX NSCLC) was > 100000 nM. For the same molecule, the GI50 (HCC-2998 colon) was 15.3 nM, the TGI (HCC-2998 colon) was 45.5 nM and the GI50 (HL-60(TB) leukemia) was 18 nM. For the same molecule, the TGI (HL-60(TB) leukemia) was 35.4 nM, the GI50 (HOP-62 NSCLC) was 36.5 nM and the TGI (HOP-62 NSCLC) was 202 nM. For the same molecule, the GI50 (HOP-92 NSCLC) was 19.2 nM, the TGI (HOP-92 NSCLC) was 57.7 nM and the GI50 (HS 578T breast) was 14.3 nM. For the same molecule, the TGI (HS 578T breast) was 41 nM, the GI50 (HT29 colon) was 197 nM and the TGI (HT29 colon) was 524 nM. The GI50 (IGROV1 ovarian) was 61.1 nM, the TGI (IGROV1 ovarian) was > 100000 nM and the GI50 (KM12 colon) was 57.4 nM. The TGI (KM12 colon) was > 100000 nM, the GI50 (LOX IMVI melanoma) was 276 nM and the TGI (LOX IMVI melanoma) was 1870 nM. It also gave a GI50 (M14 melanoma) of 19.1 nM, a TGI (M14 melanoma) of 41.7 nM and a GI50 (MALME-3M melanoma) of 23.4 nM. The TGI (MALME-3M melanoma) was 219 nM, the GI50 (MCF7 breast) was 25.1 nM and the TGI (MCF7 breast) was > 100000 nM. For the same molecule, the GI50 (MDA-MB-231 breast) was 318 nM, the TGI (MDA-MB-231 breast) was 18300 nM and the GI50 (MDA-MB-435 melanoma) was 30.5 nM. For the same molecule, the TGI (MDA-MB-435 melanoma) was 124 nM, the GI50 (MDA-MB-468 breast) was 20 nM and the TGI (MDA-MB-468 breast) was 76 nM. It also gave a GI50 (MOLT-4 leukemia) of 14.1 nM, a TGI (MOLT-4 leukemia) of 27.8 nM and a GI50 (NCI-H226 lung) of 7470 nM. It also gave a TGI (NCI-H226 lung) of 56100 nM, a GI50 (NCI-H23 lung) of 21 nM and a TGI (NCI-H23 lung) of 69.5 nM. The GI50 (NCI-H460 NSCLC) was 118 nM, the TGI (NCI-H460 NSCLC) was 1500 nM and the GI50 (NCI-H522 lung) was 1510 nM. For the same molecule, the TGI (NCI-H522 lung) was 9610 nM, the GI50 (NCI/ADR-RES ovarian) was 51.7 nM and the TGI (NCI/ADR-RES ovarian) was 197 nM. It also gave a GI50 (OVCAR-4 ovarian) of 17.7 nM, a TGI (OVCAR-4 ovarian) of 44.8 nM and a GI50 (OVCAR-5 ovarian) of 79.4 nM. It also gave a TGI (OVCAR-5 ovarian) of 433 nM, a GI50 (OVCAR-8 ovarian) of 28.7 nM and a TGI (OVCAR-8 ovarian) of 112 nM. For the same molecule, the GI50 (PC-3 prostate) was 11800 nM, the TGI (PC-3 prostate) was 65600 nM and the GI50 (RPMI-8226 leukemia) was 18.7 nM. The TGI (RPMI-8226 leukemia) was 97.9 nM, the GI50 (RXF 393 renal) was 20.7 nM and the TGI (RXF 393 renal) was 45.5 nM. For the same molecule, the GI50 (SF-268 CNS) was 241 nM, the TGI (SF-268 CNS) was > 100000 nM and the GI50 (SF-295 CNS) was 23.5 nM. The TGI (SF-295 CNS) was 68.8 nM, the GI50 (SF-539 CNS) was 17.4 nM and the TGI (SF-539 CNS) was 35.8 nM. The GI50 (SK-MEL-28 melanoma) was 244 nM, the TGI (SK-MEL-28 melanoma) was > 100000 nM and the GI50 (SK-MEL-5 melanoma) was 27.7 nM. It also gave a TGI (SK-MEL-5 melanoma) of 128 nM, a GI50 (SK-OV-3 ovarian) of 34.2 nM and a TGI (SK-OV-3 ovarian) of 162 nM. It also gave a GI50 (SN12C renal) of 450 nM, a TGI (SN12C renal) of 4270 nM and a GI50 (SNB-19 CNS) of 220 nM. For the same molecule, the TGI (SNB-19 CNS) was > 100000 nM, the GI50 (SNB-75 CNS) was 262 nM and the TGI (SNB-75 CNS) was 4580 nM. For the same molecule, the GI50 (SR leukemia) was 15.1 nM, the TGI (SR leukemia) was 29.4 nM and the GI50 (SW-620 colon) was 379 nM. The TGI (SW-620 colon) was 36400 nM, the GI50 (T-47D breast) was > 100000 nM and the TGI (T-47D breast) was > 100000 nM. The GI50 (TK-10 renal) was 24.2 nM, the TGI (TK-10 renal) was 64.7 nM and the GI50 (UACC-257 melanoma) was 368 nM. For the same molecule, the TGI (UACC-257 melanoma) was > 100000 nM, the GI50 (UO-31 renal) was 52.7 nM and the TGI (UO-31 renal) was > 100000 nM.
